{"source": "patent US7176183B2", "about": "“Methods for treating and preventing damage to mucosal tissue” (University of Southern California, priority 1999, dated 2007)", "molecules": {"B1": {"name": "filgrastim (protein, chains of the INN, looked up)", "chain": "MTPLGPASSLPQSFLLKCLEQVRKIQGDGAALQEKLCATYKLCHPEELVLLGHSLGIPWAPLSSCPSQALQLAGCLSQLHSGLFLYQGLLQALEGISPELGPTLDTLQLDVADFATTIWQQMEELGMAPALQPTQGAMPAFASAFQRRAGGVLVASHLQSFLEVSYRVLRHLAQP", "notes": "filgrastim (NEUPOGEN®, Amgen, Inc.), comparator arm"}}, "key": {"[1]": {"test_system": "patients with newly diagnosed breast cancer receiving doxorubicin and cyclophosphamide", "experiment": "Phase I/II dose escalation study of AII(1–7) in chemotherapy patients: incidence of stomatitis (oral mucositis)", "assay_type": "in vivo", "conditions": "for Stomatitis (incidents of stomatitis associated with chemotherapy): chemotherapy patients (doxorubicin/cyclophosphamide), subcutaneous treatment, AII(1-7) n = 14, filgrastim n = 5", "description": "The Phase I/II study was a prospective, open-label, dose-escalation study comparing the effects of AII(1–7 (SEQ ID NO:4)) in patients with newly diagnosed breast cancer receiving doxorubicin 60 mg/m^2 and cyclophosphamide 600 mg/m^2 for at least 3 cycles of adjuvant chemotherapy following surgical tumor reduction. A filgrastim comparator arm was used to compare safety and response variables and to assess synergy of AII(1–7) with filgrastim (NEUPOGEN®, Amgen, Inc., Thousand Oaks, Calif.).\nPatients who satisfied the inclusion/exclusion criteria received a once daily subcutaneous injection of the given AII(1–7) dose level for 7 days followed by a 1 week rest period prior to any chemotherapy (cycle 0) in the interval between tumor reduction and planned chemotherapy. Dose escalation within an individual patient was not permitted.\nFollowing the rest period, a chemotherapy regimen containing doxorubicin 60 mg/m^2 and cyclophosphamide 600 mg/m^2 was initiated. AII(1–7) was administered for at least 10 days, or until the absolute neutrophil count (ANC)>1500/μL for 2 days, beginning two days after chemotherapy. Up to three chemotherapy cycles followed by AII(1–7) administration will be repeated every 21 days or as indicated by patient tolerance. Any patient that fails to achieve an ANC>1500/μL by day 15 (13 days of AII(1–7)) received a filgrastim rescue of 5.0 μg/kg/day until the ANC>1500/μL for 2 days.\nDuring the conduct of the AII (1–7) clinical trial to examine the effect of subcutaneous injection of AII(1–7) on hematological recovery in new breast cancer patients receiving chemotherapy (doxorubicin/cyclophosphamide), adverse events that occurred were collected.\nAn adverse event (AE) was considered any unfavorable or unintended change in structure, function, signs, or symptoms temporally associated with the use of a medicinal product experienced by a person administered a pharmaceutical product, whether or not a causal relationship with the product has been established. During the conduct of this clinical trial, study personnel asked open-ended questions to obtain information about AEs at every visit. Signs and symptoms were graded by the Investigator using the WHO toxicity criteria. […] If there was stomatitis, it was graded on a four point scale as: […]"}, "[2]": {"test_system": "Female C57B1/6 mice", "experiment": "Gastrointestinal mucositis induced by cyclophosphamide injection into mice, histological scoring", "assay_type": "in vivo", "parameters": "key to Overall score: 0: No lesion; <10% Crypts distorted; 2: >10% Crypts distorted, no necrotic cells; 3: >10% Crypts distorted, occasional necrotic cell; 4: Same as 3 except more extensive; key to Epithelium score / Crypt Architecture score: 0: Normal; <10% Crypt distortion; 2: 10–50% Crypt distortion; 3: >50% Crypt distortion", "conditions": "for Epithelium score / Crypt Architecture score / Overall score: AII(1–7) 100 μg/kg s.c., one line per animal", "description": "Female C57B1/6 mice were given an intraperitoneal injection of cyclophosphamide at concentrations of 200 or 250 mg/kg. After 2 days, the mice began treatment with either AII(1–7) (100 μg/kg), or phosphate buffered saline, both of which were given subcutaneously. The baseline weight of the mice was determined, and the mice were observed daily for 7–14 days, after which the animals were necropsied. Samples from the intestines were taken at four levels, in that the intestine was cut transversely at four places along the intestinal tract, from which histological preparations were made and evaluated, in order to reduce bias due to site selection. The samples were fixed in formalin for histological evaluation of crypt distortion and architecture, as well as epithelial attenuation. The crypt is a part of the gastrointestinal tract where the mucosal glands reside. Crypt distortion is a measure of the amount of disruption to the tissue that occurs as a result of mucosal damage. The epithelium is the cell/mucosal lining to the gastrointestinal tract. Epithelial attenuation is a measure of the amount of destruction to the epithelial lining.\nHistological scoring was performed in a blinded fashion. The scores on the accompanying table were given on the following scale: […]"}, "[3]": {"experiment": "Effectiveness test of AII fragments (test not specified)"}, "[4]": {"conditions": "cyclophosphamide 200 mg/kg i.p., listed as A(1-7)"}, "[5]": {"conditions": "cyclophosphamide 250 mg/kg i.p., listed as A(1-7)"}}, "note": "Several values for one entry are separate records, joined by “and”; a condition that tells them apart may be missing. Equal values may be shown once. Entries after “also recorded” stand apart in the source; their conditions may differ."}
{"molecule": "Asp-Arg-Val-Tyr-Ile-His-Pro [AII(1–7)]", "values": [{"measurement": "Reduction of the frequency of stomatitis relative to that observed with filgrastim treatment", "setting": "[1]; chemotherapy patients", "value": 30, "unit": "%"}, {"measurement": "Stomatitis (incidents of stomatitis associated with chemotherapy)", "setting": "[1]", "value": 40, "unit": "%"}, {"measurement": "Effect on stomatitis (oral mucositis) relative to control", "setting": "[1]; subcutaneous administration, chemotherapy patients", "value": "reduced; also recorded: significantly decreased"}, {"measurement": "Epithelium score", "setting": "[2]; cyclophosphamide 200 mg/kg i.p.", "value": "1 (Mild Attenuation (<10%))"}, {"measurement": "Crypt Architecture score", "setting": "[2]; [4]", "value": "0 and 1 (<10% Crypt distortion) (2×)"}, {"measurement": "Overall score", "setting": "[2]; [4]", "value": "0 and 1 (<10% Crypts distorted) (2×)"}, {"measurement": "Crypt Architecture score", "setting": "[2]; [5]", "value": "1 (<10% Crypt distortion) (2×) and 2 (10–50% Crypt distortion)"}, {"measurement": "Epithelium score", "setting": "[2]; [5]", "value": "0 and 1 (Mild Attenuation (<10%)) (2×)"}, {"measurement": "Overall score", "setting": "[2]; [5]", "value": "0 and 1 (<10% Crypts distorted) and 2 (>10% Crypts distorted, no necrotic cells)"}, {"measurement": "Level of gastrointestinal mucositis by all histological scores", "setting": "[2]; versus saline", "value": "reduced"}]}
{"molecule": "His-Pro-Phe (HPF) [AII(6–8)]", "values": [{"measurement": "Effectiveness", "setting": "[3]", "value": "not to be effective"}]}
{"molecule": "Tyr-Ile-His-Pro-Phe (YIHPF) [AII(4–8)]", "values": [{"measurement": "Effectiveness", "setting": "[3]", "value": "not to be effective; also recorded: ineffective"}]}
{"molecule": "B1", "values": [{"measurement": "Stomatitis (incidents of stomatitis associated with chemotherapy)", "setting": "[1]", "value": 60, "unit": "%"}]}
